Target: Cav2.3 (Homo sapiens, UniProt Q15878)
Assay: Human Cav2.3 channel calcium-influx assay
Type: cell-based
Settings: HEK-293 T-Rex/Kir2.1 cells with inducible Cav2.3e-β4-α2δ1; Fluo8 fluorescence; 8-point dose response from 30 μM; no pluronic acid; read-out: Cav2.3 (pIC50) (converted)
Experimental: HEK-293 T-Rex cells were transfected with pcDNA3.1-Kir2.1 to generate a stable cell line. After antibiotic selection, the obtained stable pools were analysed using FLIPR^TETRA(membrane potential assay), and a limiting dilution was performed and a HEK-293 T-Rex/Kir2.1 clone was selected. The clone was transfected with pcDNA3.1-Cav2.3e and pBud-Cav-β4-α2δ1 to generate a stable cell line where the Cav2.3e expression is inducible. After antibiotic selection, functional clone pool analysis and two successive limiting dilutions, the final clone underwent a qPCR analysis and a biophysical and pharmacological validation using patch-clamp.
A compound plate, containing 10 test compounds in eight-points dose response with n=4, was prepared. Test compounds dose response curves were prepared in automated fashion in 100% DMSO at CyBio Felix and starting from a stock solution in 100% DMSO; a defined volume was serially moved into destination wells pre-filled with the desired DMSO volume; stock solution concentration volumes were dependent on the final compounds concentrations to be tested and the final DMSO content used in the assay. For the assay test compounds dose response curves ranged from 30 μM and half log dilution with 0.3% final DMSO. In order to obtain the 8-points dose response curve all the concentrations were created by starting from a 10 mM DMSO stock solution and then moving 9.5 μL into a destination well pre-filled with 20.5 μL of 100% DMSO and repeating this step seven times. This initial step was done into 96 MTP plates, 10 compounds/plate. One 384 MTP was then reformatted to contain all the 10 compounds at 8 concentrations, quadruplicate data points. This so obtained 384 MTP compound plate served as source plate in a “mother to child” process with a CyBi®-Well dispenser in which 0.7 μL of compounds were moved into a destination plate pre-filled with 57.6 μL of Tyrode's buffer 0 mM K^+, thus obtaining 4× concentrated compounds solution. In columns 1-2 and 23-24 the control wells were added. Both “source” compound plate and “destination” compound plate were barcoded and a relationship between the two plates was thus generated.
The day before the experiment, cells were detached by gentle wash with DPBS, followed by 5 min incubation at 37° C. with Trypsin solution. Detached cells were diluted with OptiMEM+Doxycycline at 0.2 μg/mL, counted and plated in Poly-D-Lysine coated black/clear bottom (15.000 c/well in 20 μl/well) by the use of a MATRIX WellMate dispenser. Plates were placed into a humidified incubator at 37° C. with 5% CO2 until the experimental day. 24 h after seeding 10 μL/well of 1.5× Fluo8 NW dye solution prepared in Tyrode's buffer 0 mM K^+ were added on top of the seeding medium. Cell plates were incubated for 40-60 min at RT in the dark. We then Injected off-line 10 μL/well of test compounds and controls 4× concentrated in Tyrode's Buffer 0 mM K+ with the CyBi®-Well instrument. Cell plates were incubated 3 minutes at RT. Finally, we injected 20 μL/well of 3× concentrated activator solution (K20-Na130-Ca2 buffer: 20 mM KCl, 130 mM NaCl, 2 mM CaCl2, 10 mM HEPES, 10 mM Glucose, final concentrations, prepared starting from “K0-Na150-Ca2” and “K150-Na0-Ca2” buffers) at FDSS7000EX instrument and read emitted fluorescence for 130 seconds.
Data analysis was performed with Genedata Screener® software and reported compounds activity as % effect in relation to the normalization standards. The Kinetic Response Value (KRV) is calculated as follows:
KRV=Maximal fluorescence recorded from second 5 to second 130 minus baseline fluorescence, computed as average from second 1 to second 2, of the kinetic trace. The KRV was normalized versus Neutral Controls and Inhibitor Controls in order to obtain the Activity[%] for each well. […] Therefore, the compound activity values were scaled (based on the two references) to a common range (two-point normalization). […]

Cav2.3, sequence (Q15878 1-2270 isoform Q15878-3): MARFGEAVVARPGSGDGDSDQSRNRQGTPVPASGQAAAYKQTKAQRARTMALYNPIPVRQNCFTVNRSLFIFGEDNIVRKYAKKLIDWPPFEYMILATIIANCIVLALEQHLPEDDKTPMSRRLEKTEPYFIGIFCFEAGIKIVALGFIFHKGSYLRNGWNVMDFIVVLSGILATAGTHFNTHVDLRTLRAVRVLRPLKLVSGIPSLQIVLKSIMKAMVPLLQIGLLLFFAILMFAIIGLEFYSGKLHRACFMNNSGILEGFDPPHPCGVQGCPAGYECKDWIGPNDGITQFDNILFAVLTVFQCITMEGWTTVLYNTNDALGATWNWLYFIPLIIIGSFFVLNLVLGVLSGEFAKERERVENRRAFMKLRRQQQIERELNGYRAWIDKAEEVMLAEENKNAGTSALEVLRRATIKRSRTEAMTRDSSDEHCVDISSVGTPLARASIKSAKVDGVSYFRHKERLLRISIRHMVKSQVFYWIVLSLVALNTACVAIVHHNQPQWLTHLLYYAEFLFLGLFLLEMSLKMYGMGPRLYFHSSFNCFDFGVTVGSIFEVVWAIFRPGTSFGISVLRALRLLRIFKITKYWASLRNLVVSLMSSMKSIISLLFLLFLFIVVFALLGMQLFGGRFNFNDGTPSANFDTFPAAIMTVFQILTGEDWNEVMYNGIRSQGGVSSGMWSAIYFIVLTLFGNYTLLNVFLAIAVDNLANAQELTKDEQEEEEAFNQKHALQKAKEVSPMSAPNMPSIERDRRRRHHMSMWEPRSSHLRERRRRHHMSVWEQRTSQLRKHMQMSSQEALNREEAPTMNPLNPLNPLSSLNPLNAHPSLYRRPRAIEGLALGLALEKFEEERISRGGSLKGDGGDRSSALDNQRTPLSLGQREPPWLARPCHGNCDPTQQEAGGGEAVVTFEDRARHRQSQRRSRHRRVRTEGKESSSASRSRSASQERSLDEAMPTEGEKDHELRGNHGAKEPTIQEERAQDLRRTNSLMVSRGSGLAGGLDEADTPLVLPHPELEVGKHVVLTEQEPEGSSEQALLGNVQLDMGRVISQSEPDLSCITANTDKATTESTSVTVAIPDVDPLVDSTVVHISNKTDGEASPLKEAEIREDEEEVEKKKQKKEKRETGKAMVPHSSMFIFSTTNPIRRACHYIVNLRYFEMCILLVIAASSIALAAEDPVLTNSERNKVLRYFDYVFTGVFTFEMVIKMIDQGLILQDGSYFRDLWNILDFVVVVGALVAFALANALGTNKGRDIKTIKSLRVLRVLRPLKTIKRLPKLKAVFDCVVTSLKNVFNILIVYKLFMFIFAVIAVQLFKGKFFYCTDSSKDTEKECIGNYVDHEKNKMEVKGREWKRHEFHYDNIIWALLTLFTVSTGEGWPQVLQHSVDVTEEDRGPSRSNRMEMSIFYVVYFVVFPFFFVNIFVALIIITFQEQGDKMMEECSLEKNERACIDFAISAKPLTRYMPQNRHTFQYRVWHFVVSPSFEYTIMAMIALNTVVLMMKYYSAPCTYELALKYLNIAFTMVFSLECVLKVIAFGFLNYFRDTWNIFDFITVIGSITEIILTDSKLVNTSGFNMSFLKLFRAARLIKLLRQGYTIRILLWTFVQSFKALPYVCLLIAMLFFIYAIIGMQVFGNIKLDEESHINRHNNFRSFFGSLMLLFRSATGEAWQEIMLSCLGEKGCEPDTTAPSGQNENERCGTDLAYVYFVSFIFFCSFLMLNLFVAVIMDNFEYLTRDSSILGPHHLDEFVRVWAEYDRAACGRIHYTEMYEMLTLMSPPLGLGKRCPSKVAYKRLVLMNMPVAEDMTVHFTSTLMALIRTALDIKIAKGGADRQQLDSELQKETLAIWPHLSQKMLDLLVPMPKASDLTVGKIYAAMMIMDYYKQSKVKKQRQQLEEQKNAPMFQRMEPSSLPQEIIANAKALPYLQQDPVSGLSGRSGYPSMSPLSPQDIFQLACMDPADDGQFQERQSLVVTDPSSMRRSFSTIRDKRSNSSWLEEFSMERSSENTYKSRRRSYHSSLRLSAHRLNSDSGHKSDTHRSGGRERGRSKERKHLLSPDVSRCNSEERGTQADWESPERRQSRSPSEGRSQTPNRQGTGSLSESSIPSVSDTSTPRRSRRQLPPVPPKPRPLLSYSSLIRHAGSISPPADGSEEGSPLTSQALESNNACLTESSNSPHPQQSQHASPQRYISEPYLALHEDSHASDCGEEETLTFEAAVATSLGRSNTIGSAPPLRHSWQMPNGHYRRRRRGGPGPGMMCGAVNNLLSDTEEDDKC

Structure (SMILES)	IC50
CC(C)C(=O)N1Cc2ccc(S(=O)(=O)N(C)[C@@H](C)c3ccccc3)cc2C1 [Example 40, (S)-2-isobutyryl-N-methyl-N-(1-phenylethyl)isoindoline-5-sulfonamide]	2.88 µM
CCN(C1(c2ccc(F)cc2)COC1)S(=O)(=O)c1ccc2c(c1)CN(C(=O)C(C)C)CC2 [Example 28, N-ethyl-N-(3-(4-fluorophenyl)oxetan-3-yl)-2-isobutyryl-1,2,3,4-tetrahydroisoquinoline-7-sulfonamide]	3.8 µM
CCN(C(c1ccc(F)cc1)C(F)(F)F)S(=O)(=O)c1ccc2c(c1)CN(C(=O)C1CCOCC1)CC2 (stereo not shown) [Example 43, N-ethyl-2-(tetrahydro-2H-pyran-4-carbonyl)-N-(2,2,2-trifluoro-1-(4-fluorophenyl)ethyl)-1,2,3,4-tetrahydroisoquinoline-7-sulfonamide]	0.589 µM
CCN([C@H](c1ccc(F)cc1)C(F)(F)F)S(=O)(=O)c1ccc2c(c1)CN(C(=O)C1CC1)CC2 [Example 48, (R)-2-(Cyclopropanecarbonyl)-N-ethyl-N-(2,2,2-trifluoro-1-(4-fluorophenyl)ethyl)-1,2,3,4-tetrahydroisoquinoline-7-sulfonamide]	0.427 µM
C[C@@H](c1ccccc1)N(C)S(=O)(=O)c1ccc2c(c1)CN(c1ccncc1)CC2 [Example 3, (S)-N-methyl-N-(1-phenylethyl)-2-(pyridin-4-yl)-1,2,3,4-tetrahydroisoquinoline-7-sulfonamide]	2.09 µM
CCN([C@@H](c1ccc(F)cc1)C(F)(F)F)S(=O)(=O)c1ccc2c(c1)CN(C(=O)C(C)C)CC2 (stereo in doubt) [Example 7, N-ethyl-2-isobutyryl-N-(2,2,2-trifluoro-1-(4-fluorophenyl)ethyl)-1,2,3,4-tetrahydroisoquinoline-7-sulfonamide]	2 µM
CC(C)C(=O)N1CCc2ccc(S(=O)(=O)N(C)[C@@H](C)c3ccccc3)cc2C1 [Example 15, (S)-2-isobutyryl-N-methyl-N-(1-phenylethyl)-1,2,3,4-tetrahydroisoquinoline-7-sulfonamide]	0.891 µM
CC(C)N1CCc2cc(S(=O)(=O)N(C)[C@@H](C)c3ccccc3)ccc2C1=O [Example 37, (S)-2-isopropyl-N-methyl-1-oxo-N-(1-phenylethyl)-1,2,3,4-tetrahydroisoquinoline-6-sulfonamide]	6.46 µM
CC(C)C(=O)N1CCc2ccc(S(=O)(=O)N(CCF)[C@@H](c3ccc(F)cc3)C(F)(F)F)cc2C1 [Example 50, (S)-N-(2-fluoroethyl)-2-isobutyryl-N-(2,2,2-trifluoro-1-(4-fluorophenyl)ethyl)-1,2,3,4-tetrahydroisoquinoline-7-sulfonamide]	3.31 µM
CC(C)C(=O)N1CCc2ccc(S(=O)(=O)N(C)[C@@H](C)c3ccccc3)cc2CC1 [Example 36, (S)-3-isobutyryl-N-methyl-N-(1-phenylethyl)-2,3,4,5-tetrahydro-1H-benzo[d]azepine-7-sulfonamide]	1.95 µM
CCN([C@H](c1ccc(F)cc1)C(F)(F)F)S(=O)(=O)c1ccc2c(c1)CN(C(=O)C(C)(C)F)CC2 [Example 41, (R)-N-ethyl-2-(2-fluoro-2-methylpropanoyl)-N-(2,2,2-trifluoro-1-(4-fluorophenyl)ethyl)-1,2,3,4-tetrahydroisoquinoline-7-sulfonamide]	0.891 µM
CCN(C(c1ccc(F)cc1)C(F)(F)F)S(=O)(=O)c1ccc2c(c1)CN(C(=O)C(C)C)CC2 (stereo not shown) [Example 5, N-ethyl-2-isobutyryl-N-(2,2,2-trifluoro-1-(4-fluorophenyl)ethyl)-1,2,3,4-tetrahydroisoquinoline-7-sulfonamide]	0.437 µM
CCN(C1(c2ccc(F)cc2)COC1)S(=O)(=O)c1ccc2c(c1)CCN(C(=O)C(C)C)C2 [Example 30, N-ethyl-N-(3-(4-fluorophenyl)oxetan-3-yl)-2-isobutyryl-1,2,3,4-tetrahydroisoquinoline-6-sulfonamide]	6.76 µM
CC(C)C(=O)N1CCc2cc(S(=O)(=O)N(C)C3(c4ccc(F)cc4)COC3)ccc2C1 [Example 31, N-(3-(4-fluorophenyl)oxetan-3-yl)-2-isobutyryl-N-methyl-1,2,3,4-tetrahydroisoquinoline-6-sulfonamide]	9.12 µM
CC(C)C(=O)N1CCc2ccc(S(=O)(=O)N(CCF)[C@H](c3ccc(F)cc3)C(F)(F)F)cc2C1 [Example 51, (R)-N-(2-fluoroethyl)-2-isobutyryl-N-(2,2,2-trifluoro-1-(4-fluorophenyl)ethyl)-1,2,3,4-tetrahydroisoquinoline-7-sulfonamide]	0.417 µM
CCN([C@@H](c1ccc(F)cc1)C(F)(F)F)S(=O)(=O)c1ccc2c(c1)CN(C(=O)C1CC1)CC2 [Example 47, (S)-2-(Cyclopropanecarbonyl)-N-ethyl-N-(2,2,2-trifluoro-1-(4-fluorophenyl)ethyl)-1,2,3,4-tetrahydroisoquinoline-7-sulfonamide]	4.57 µM
CCN(C(c1ccc(F)cc1)C(F)(F)F)S(=O)(=O)c1ccc2c(c1)CN(C(=O)C1COC1)CC2 (stereo not shown) [Example 44, N-ethyl-2-(oxetane-3-carbonyl)-N-(2,2,2-trifluoro-1-(4-fluorophenyl)ethyl)-1,2,3,4-tetrahydroisoquinoline-7-sulfonamide]	2.04 µM
C[C@@H](c1ccccc1)N(C)S(=O)(=O)c1ccc2c(c1)CN(C(=O)c1ccccc1)CC2 [Example 4, (S)-2-benzoyl-N-methyl-N-(1-phenylethyl)-1,2,3,4-tetrahydroisoquinoline-7-sulfonamide]	2 µM
CCN([C@@H](C)c1ccccc1)S(=O)(=O)c1ccc2c(c1)CCN(C(=O)C(C)C)C2 [Example 25, (S)-N-ethyl-2-isobutyryl-N-(1-phenylethyl)-1,2,3,4-tetrahydroisoquinoline-6-sulfonamide]	1.45 µM
CCN([C@@H](C)c1ccc(F)cc1)S(=O)(=O)c1ccc2c(c1)CN(C(=O)C1CC1)CC2 [Example 13, (S)-2-(cyclopropanecarbonyl)-N-ethyl-N-(1-(4-fluorophenyl)ethyl)-1,2,3,4-tetrahydroisoquinoline-7-sulfonamide]	0.912 µM
C[C@@H](c1ccccc1)N(C)S(=O)(=O)c1ccc2c(c1)CN(C(=O)C(F)(F)F)CC2 [Example 2, (S)-N-methyl-N-(1-phenylethyl)-2-(2,2,2-trifluoroacetyl)-1,2,3,4-tetrahydroisoquinoline-7-sulfonamide]	2.04 µM
C[C@@H](c1ccccc1)N(C)S(=O)(=O)c1ccc2c(c1)CCN(C)C2=O [Example 38, (S)-N,2-dimethyl-1-oxo-N-(1-phenylethyl)-1,2,3,4-tetrahydroisoquinoline-6-sulfonamide]	6.61 µM
C[C@@H](c1ccccc1)N(C)S(=O)(=O)c1ccc2c(c1)CN(C(=O)C1CC1)CC2 [Example 16, (S)-2-(cyclopropanecarbonyl)-N-methyl-N-(1-phenylethyl)-1,2,3,4-tetrahydroisoquinoline-7-sulfonamide]	1.02 µM
CC(C)N1Cc2ccc(S(=O)(=O)N(C)[C@@H](C)c3ccccc3)cc2CC1=O [Example 39, (S)-2-isopropyl-N-methyl-3-oxo-N-(1-phenylethyl)-1,2,3,4-tetrahydroisoquinoline-6-sulfonamide]	11.7 µM
CCN([C@@H](c1ccc(F)cc1)C(F)(F)F)S(=O)(=O)c1ccc2c(c1)CN(C(=O)C(C)(C)F)CC2 [Example 42, (S)-N-ethyl-2-(2-fluoro-2-methylpropanoyl)-N-(2,2,2-trifluoro-1-(4-fluorophenyl)ethyl)-1,2,3,4-tetrahydroisoquinoline-7-sulfonamide]	2.63 µM
